The numbers were not newly measured in patent US20110104279A1, “HEALING POWDER AND METHOD OF USE THEREOF” (priority 2009, published 2011), which cites them from elsewhere.

Data set [1] has as its system full thickness wounds in the backs of pigs. As to conditions: wounds 25 mm square, 9 mm deep, packed and covered with Opsite.
The test system of data set [2] is acute mediastinitis wounds. Conditions: 19 patients, wounds packed every 3 to 4 hours.

On to `N=C(NCCCCCCNC(=N)NC(=N)Nc1ccc(Cl)cc1)NC(=N)Nc1ccc(Cl)cc1.O=C(O)[C@H](O)[C@@H](O)[C@H](O)[C@H](O)CO.O=C(O)[C@H](O)[C@@H](O)[C@H](O)[C@H](O)CO` [chlorhexidine gluconate], for which the “wound healing compared with wounds covered with Opsite alone” value in data set [1] is “delayed healing”.
On to `OC[C@H]1O[C@@](CO)(O[C@H]2O[C@H](CO)[C@@H](O)[C@H](O)[C@H]2O)[C@@H](O)[C@@H]1O` [granular sugar, sucrose], for which the “average time of treatment to near complete debridement, granulation tissue formation and eradication of bacterial infection” value in data set [2] is 7.6 days.
